Data published in patent US20180235917A1, “COMPOSITIONS, METHODS AND KITS FOR TREATMENT OF DIABETES AND/OR […]” (NuSirt Sciences, Inc., priority 2014, published 2018).

Assays:
3T3-L1 adipocytes = assay: Fatty acid oxidation (palmitate-induced O2 consumption, Seahorse XF24) in adipocytes; type: cell-based, mouse; conditions: 24-hour Met-Leu treatment
[1] = test system: adipocytes (3T3-L1) and myotubes (C2C12); assay: Glucose utilization (extracellular acidification), cell type not stated; type: cell-based, mouse; conditions: compound alone
Description: In the absence of a fatty acid source and oxidative metabolism, glycolysis and subsequent lactate production results in extracellular acidification, which was also measured using a Seahorse Bioscience XF24 analyzer. Cells were prepared and equilibrated similar to the methods described above for fatty acid oxidation, with the exclusion of carnitine from the medium. Following instrument equilibration and three baseline measurements, glucose was injected to a final concentration of 10 mM in each well. Measurements were taken as described above utilizing the sensors for extracellular acidification rather than O2 consumption. Insulin (final concentration of 5 nM) was added to some wells as a positive control. Data for each sample were normalized to the pre-glucose injection baseline for that sample and expressed as % change from that baseline. The area under of the curve of extracellular acidification change from baseline for each sample was then calculated and used for subsequent analysis.
In the absence of a fatty acid source and oxidative metabolism, glycolysis and subsequent lactate production results in extracellular acidification, which was also measured using a Seahorse Bioscience XF24 analyzer. […] Data for each sample were normalized to the pre-glucose injection baseline for that sample and expressed as % change from that baseline. […]

C2C12 myotubes [2] = assay: Glucose utilization (extracellular acidification response to glucose) in myotubes; type: cell-based, mouse
C2C12 myotubes [3] = conditions: Mooney et al. 2008; cited from earlier work
[4] = test system: LDL receptor knockout (Ldlr−/−) mice; assay: Ldlr−/− mice on atherogenic diet with leucine/metformin/nicotinic acid (Example 15); type: in vivo, Mus musculus
Caenorhabditis elegans = assay: Lifespan of C. elegans (Example 10); type: in vivo; conditions: basal conditions; leucine 0.5 mM, nicotinic acid 10 nM
Description: Eggs were hatched on a starved plate overnight. […] All treatments were added with the indicated concentrations to E. coli the agar plates. […] The worms were maintained at 20° C. throughout the duration of the study. Worms were transferred to new plates daily to eliminate progeny. […] The study was continued until the last animal was dead. Data were analyzed via Kaplan-Meier survival curves using Prism 6 (GraphPad Software) and statistical significance was determined by the Log-rank (Mantel-Cox) test.

[5] = test system: patients pre-diagnosed with hyperlipidemia; assay: Planned study in hyperlipidemic patients: lipids and cutaneous vasodilation (Example 8); type: in vivo, human; conditions: for triglyceride, LDL, cholesterol and HDL levels compared to day 0: oral twice a day, 60 days
Description: Patients that are pre-diagnosed with hyperlipidemia are admitted for the randomized and double blind study. […] The treatments are administered orally twice a day, for 60 days continuously. […] The serum/plasma levels of triglyceride, cholesterol, LDL and HDL are measured. Cutaneous vasodilation is measured by laser-Doppler flowmeter and the discomfort level described by the patients.

Sirt1 = conditions: C2C12 myotubes
[6] = test system: patients pre-diagnosed with hyperlipidemia; assay: Planned study in patients: atherosclerotic plaque size by quantitative coronary angiography (Example 9); type: in vivo, human; conditions: oral twice a day, 3 years; nicotinic acid 50 mg, leucine 550 mg, resveratrol 50 mg
Description: Patients that experience acute chest pain and are pre-diagnosed with hyperlipidemia are admitted for the randomized and double blind study. […] The treatments are administered orally twice a day, for 3 years continuously. The size of atherosclerotic plaque is measured at day 0, months 6, 12, 18, 24, 30 and 36 by quantitative coronary angiography.

[7] = test system: LDL receptor knockout (LDLRKO) mice; assay: Planned study in LDL receptor knockout mice with leucine/metformin/nicotinic acid (Example 13); type: in vivo, mouse
AMPK = conditions: 3T3-L1 adipocytes
[8] = test system: LDL receptor knockout mice; assay: LDL receptor knockout mice on western diet: plasma lipids, atherosclerosis, macrophage infiltration (Example 7); type: in vivo, mouse
Description: LDL receptor knockout (LDLRKO) mice were obtained from Jackson Laboratories (Bar Harbor, Me.), and housed in groups under room temperature in a humidity-controlled environment with a regular light and dark cycle. The mice were provided free access to an atherogenic western diet (WD) containing 0.21% cholesterol (by weight) and 40% calories from fat and water for 4 weeks prior to treatment. For treatment, the mice were given (a) the WD diet alone, (b) WD and 24 g of leucine/kg diet, (c) WD and 24 g of leucine/kg diet and 50 mg nicotinic acid/kg diet, (d) WD and 24 g of leucine/kg diet and 250 mg nicotinic acid/kg diet, or (e) WD and 1000 mg nicotinic acid/kg diet; this is approximately equivalent to a low therapeutic dose of nicotinic acid in hypercholesterolemic humans (˜1,500 mg/day). The treatments were administered for eight weeks continuously.
Blood samples of the mice in all groups were obtained from tails of the mice at following four and eight weeks of administration. The serum/plasma levels of triglyceride, total cholesterol and cholesterol esters were measured. Following treatment, food was removed for four hours and the animals were euthanized.
Blood was collected into EDTA-coated tubes to analyze plasma lipid and cholesterol profiles. Plasma total cholesterol (TC, Pointe Scientific, Canton, Mich.), free cholesterol (FC, Wako, Richmond, Va.) and triglyceride (TG, Wako, Richmond, Va.) concentrations were measured using enzymatic assays according to manufacturer's instructions. Cholesterol ester (CE) was calculated as the difference between TC and FC.
To assess atherosclerosis, the circulatory system was perfused following euthanasia with phosphate-buffered saline (PBS) before removing the heart and aorta. The upper one-third of the heart was dissected and embedded in Optimal Cutting Temperature Compound (Sakura Tissue-Tek, Torrance, Calif.), frozen, and stored at −80° C. Blocks were serially cut at 8 μm intervals and stained with hematoxylin and 0.5% Oil Red O (Sigma-Aldrich) to evaluate aortic sinus atherosclerotic intimal area. Atherosclerotic lesion area and Oil Red O positive area were quantified using Image-Pro Plus software (Media Cybernetics, Bethesda, Md.). Whole aorta (from sinotubular junction to iliac bifurcate) was dissected and fixed in 10% formalin, and the adventitia was cleaned. Aortas were opened along the longitudinal axis and pinned onto black silicon elastomer (Rubber-Cal, Santa Ana, Calif.) for the quantification of atherosclerotic lesion area. The percentage of total aortic surface covered with atherosclerotic lesions was quantified by Image-Pro Plus software (Media Cybernetics, Bethesda, Md.) and used to determine the total lesion area.
To assess macrophage infiltration, Sections of aortic sinus were immuno-stained with rat monoclonal antibody against macrophage-specific CD68 (Clone FA11, 1:75, AbD Serotec, Raleigh, N.C.) followed by staining with alkaline phosphatase-conjugated mouse anti-rat (for CD68, 1:50) secondary antibodies (Jackson ImmunoResearch laboratories, West Grove, Pa.). Control slides contain no primary antibody. The CD68-positive areas were analyzed using Image-Pro Plus software (Media Cybernetics, Bethesda, Md.).

[9] = nicotinic acid 50 mg, leucine 550 mg, resveratrol 50 mg
[10] = 24 hours, nicotinic acid 10 nM, leucine 0.5 mM, resveratrol 200 nM

For `c1cc(-c2cnn3cc(-c4ccc(OCCN5CCCCC5)cc4)cnc23)ccn1` [Compound C], the “effect of the AMPK inhibitor on the Met-Leu increase in palmitate-induced fatty acid oxidation” value (3T3-L1 adipocytes) was “completely blocked this increase”.
For `N=C(N)N` [Guanidine], the “no-effect threshold for stimulation of glucose utilization” value [1] was 0.1 to 1 µM.
In the case of `CC(C)=CCN=C(N)N` [galegine], the “increase in insulin-stimulated glucose utilization” value (C2C12 myotubes [2]; C2C12 myotubes, 5 nM insulin, galegine 5 μM, leucine 0.5 mM) is listed as “no effect”, the “concentrations with no independent effect on basal or insulin-stimulated glucose utilization (dose response curves)” value (C2C12 myotubes [2]; galegine alone) is listed as “up to 500 μM” and the “concentration below which published literature shows no effect” value (C2C12 myotubes [3]) is listed as < 100 µM.
For `O=C(O)c1cccnc1` [nicotinic acid], the fasting blood glucose ([4]; 8 weeks, nicotinic acid 1000 mg/kg diet, or leucine 24 g/kg + metformin 0.5 g/kg + nicotinic acid 50 mg/kg diet, vs atherogenic diet) was “no change”, the “plasma LDL cholesterol” value ([4]; Day 56, doses as E126) was “significantly lower” and the plasma cholesterol ([4]; Day 56, doses as E126) was “significantly lower”. The plasma triglycerides ([4]; Day 56, doses as E126) was “significantly lower”, the “Oil Red O staining area in the heart and aorta” value ([4]; doses as E126) was “significantly less Oil Red O staining area” and the “atherosclerosis (histological images of heart)” value ([4]; doses as E126) was “reduced”. For the same compound, the fasting plasma insulin ([4]; doses as E126) was “no change”, the effect on lifespan (Caenorhabditis elegans) was “no independent effect” and the “cutaneous vasodilation compared to 1500 mg nicotinic acid” value [5, 9] was “lower”. For the same compound, the “cutaneous vasodilation compared to all other groups” value ([5]; nicotinic acid 1500 mg alone) was “significant higher cutaneous vasodilation”, the “triglyceride, LDL, cholesterol and HDL levels compared to day 0” value [5, 9] was “similar, without statistically significant difference” and the “triglyceride, LDL, cholesterol and HDL levels compared to day 0” value ([5]; nicotinic acid 1500 mg alone) was “significantly lower triglyceride, LDL and cholesterol levels, and significantly higher HDL level”. The “concentrations that alone exert no effect (dose-response study)” value (Sirt1) was < 100 nM, the “increase in Sirt1 levels” value (Sirt1; [10]) was “did not have a significant effect” and the “size of atherosclerotic plaque compared to day 0” value [6] was “similar, without statistically significant difference”. For the same compound, the “plasma insulin and HOMAIR index” value ([7]; diet doses: metformin 1.5 g/kg alone or 0.25 g/kg in combinations, nicotinic acid 1000 mg/kg alone or 50 mg/kg in combinations, leucine 24 g/kg) was “high plasma insulin and HOMAIR index”, the “atherosclerotic lesion size and aortic macrophage infiltration relative to western diet alone” value ([7]; doses as E112) was “decrease atherosclerotic lesion size and decrease in aortic macrophage infiltration” and the “concentrations that alone exert no effect (dose-response study)” value (AMPK) was < 100 nM. For the same compound, the “AMPK activation (P-AMPK/AMPK)” value (AMPK; [10]) was “no significant effect”, the “decrease in aortic macrophage infiltration (CD68 positive area)” value ([8]; eight weeks, doses as E77) was ~50% and the “decrease in atherosclerotic lesion size (lesion and lipid area)” value ([8]; eight weeks, nicotinic acid 1,000 mg/kg diet, leucine 24 g/kg diet, or leucine + nicotinic acid 50 mg/kg diet, vs western diet alone) was ~50%. For the same compound, the “decrease in plasma cholesterol esters” value ([8]; four weeks, doses as E73) was 28%, the “decrease in plasma triglycerides” value ([8]; four weeks, doses as E73) was 32% and the “decrease in plasma total cholesterol” value ([8]; four weeks, western diet + nicotinic acid 1,000 mg/kg diet, leucine 24 g/kg diet, or leucine + nicotinic acid 50 or 250 mg/kg diet) was 20%.
